Where only a bound is given, the exact number is not on record here.

We go through seven compounds from patent US9382433B2, “Ketocoumarins as photoinitiators and photosensitizers in printing inks and coatings” (SUN CHEMICAL CORPORATION, priority 2012, dated 2016).

A short description of series [1]: Cure index (set-off cure test, sum of DL values). As to conditions: Offset Black Ink 2; ketocoumarin 5.10% in Inventive PI Blend 2; ~32 mJ per pass, 100 m/min; lower is superior cure. The text has this: Offset Black Ink 2—based on a ketone functional resin, tri- and tetra-functional alkoxylated acrylates and approximately 14% carbon black pigment.
(§1) The inks were printed onto a carton board substrate (Incada Exel coated board from Iggesund) to a density of approximately 1.8-2.0 using an IGT C1 print proofer. These were cured at 100 m/min using a Primarc UV rig fitted with a single 300 W/inch medium pressure mercury lamp, operating at half power (˜32 mJ per pass). The number of passes required to cure was measured by a “set-off cure test” which is done by visually comparing the extent to which after each pass the ink has transferred to a piece of blank substrate under 10 tons pressure for 5 seconds. […] The amount of set-off is then measured using color computer software, which determines the average color density of the set-off ink compared to a blank piece of substrate. The amount of set-off is measured as the lightness “DL” of the blank substrate vs. the transferred ink film, measured using a Spectraflash 650 spectrophotometer. The DL value is measured for each pass of the ink underneath the curing lamp, using a fresh piece of substrate for each pass until the ink is deemed fully cured and there is no visible ink transfer. The cure index is calculated by adding the individual DL values and rounding the sum to the nearest whole number. For example, if 4 passes under the curing lamp was required to cure a given ink film, and the DL values for the first 3 passes were 8.89, 5.27, 2.15 respectively, then the sum of the figures would be 16.31, which would be rounded to a cure index of 16. Note that there is no DL value taken after the 4th pass, as the ink film was determined to be fully cured by the visual absence of ink transferred during the set-off cure test. […] The tables below show the results for the evaluations.

The nature of series [2]: Cure index of ink-jet magenta inks. The settings on record: ketocoumarin 6.167% in Inventive Ink-Jet PI Blend, 84 mJ per pass, 70 m/min, rounded to nearest 0.5. The method, then: Magenta ink-jet inks were prepared to assess the performance of the inventive ketocoumarin materials an ink-jet ink formulation. The magenta ink formulation is based on 17.5% of a magenta pigment concentrate and a blend of difunctional monomers which includes propoxylated neopentylglycol diacrylate, dipropyleneglycol diacrylate, tripropylene glycol diacrylate (all at approximately 15%) and 2-(2-Vinyloxyethoxy)ethyl acrylate (at approximately 20%).
The inks were printed onto white PE TopTrans top-coated label substrate using a No. 2 K-Bar (red). The No. 2 K-bar gives a film thickness of about 12 μm. The inks were cured at 70 m/min using a Primarc UV rig fitted with a single 300 W/inch medium pressure mercury lamp, operating at full power (84 mJ per pass). Cure index was determined using the same cure index test described above for the black offset inks.
The cure index results in Table 12 were determined using the same test method as described for the black offset inks in Tables 7-9 with one exception; in Table 12 the cure index figures were rounded to the nearest 0.5 rather than to the nearest whole number. It should be noted that the cure index numbers are a representation of cure at a relatively low UV lamp dose compared to that used in a commercial application. A commercial application would typically use higher UV lamp dosage and all of the above formulations would perform adequately under these conditions. The experiments have been set up to highlight differences in cure and therefore have been carried out at relatively low cure dose. In the above experiments an ink with a cure index of less than 4-5 would cure adequately using commercial lamp conditions. Inks with a cure index of much lower than 4-5 are, therefore, performing very well.

Series [3] can be described thus: Solubility by visual inspection of ink and prints. It counts as physicochemical. Further details: key: Good=Soluble (no solid bits in the ink and good printability); OK=Partially insoluble (some solid bits in the ink and slightly poor printability); Poor=Very noticeable insolubility (very noticeable solid bits in the ink and poor printability). The settings on record: visual inspection of inks and prints. The protocol: The solubility of the materials was assessed by visual inspection of the inks and from visual inspection of the prints. Insolubility is reported as follows: Good=Soluble (no solid bits in the ink and good printability); OK=Partially insoluble (some solid bits in the ink and slightly poor printability); Poor=Very noticeable insolubility (very noticeable solid bits in the ink and poor printability).

Series [4] is described as follows: Cure index (set-off cure test, sum of DL values). The settings on record: Offset Black Ink 1; ketocoumarin 5.10% in Inventive PI Blend 1; ~32 mJ per pass, 100 m/min; lower is superior cure. The method, then:
Offset Black Ink 1—based on a urea-formaldehyde resin, trifunctional acrylate and approximately 13% carbon black pigment.
as §1

Series [5] can be described thus: Cure index (set-off cure test, sum of DL values). The settings on record: Offset Black Ink 3; ketocoumarin 6.000% in Inventive PI Blend 3; ~32 mJ per pass, 100 m/min; lower is superior cure.
Description: Offset Black Ink 3—based on a ketone functional resin, tri- and tetra-functional alkoxylated acrylates and approximately 14% carbon black pigment.
as §1

Regarding `O=C(c1ccccc1)c1cc2ccccc2oc1=O` [Comparative Example 1, reference compound], the Cure index in series [1] is listed as 24; in series [2] it was 38; in series [4] it was 28; in series [5] it was 27. In series [3], the “Solubility in Ink-Jet Magenta Ink” value is on record as “Poor”. Also, the “Solubility in Offset Black Ink 1” value in series [3] is recorded as “Poor”. The “Solubility in Offset Black Ink 2” value in series [3] is “Poor”. Besides, the “Solubility in Offset Black Ink 3” value in series [3] was “Poor”.

Turning to `COc1ccc2cc(C(=O)c3ccccc3)c(=O)oc2c1` [Comparative Example 2, reference compound], the Cure index in series [1] was 13. In series [2], the Cure index is given as <1. For the same compound, in series [3], the “Solubility in Ink-Jet Magenta Ink” value is on record as “Poor”, the “Solubility in Offset Black Ink 1” value was “Poor”, the “Solubility in Offset Black Ink 2” value is “Poor” and the “Solubility in Offset Black Ink 3” value is recorded as “Poor”. The compound further registered a Cure index in series [4] of 52. The same compound registered a Cure index in series [5] of 33.

In the case of `O=C(COc1ccc2cc(C(=O)c3ccccc3)c(=O)oc2c1)OCCOCCOC(=O)COc1ccc2cc(C(=O)c3ccccc3)c(=O)oc2c1` [Inventive Example 5], in series [2], the Cure index is recorded as 9. In addition, in series [3], the “Solubility in Ink-Jet Magenta Ink” value is recorded as “Good”.

Regarding `O=C(COc1ccc2cc(C(=O)c3ccccc3)c(=O)oc2c1)OCCOCCOCCOC(=O)COc1ccc2cc(C(=O)c3ccccc3)c(=O)oc2c1` [Inventive Example 11], in series [1], the Cure index was found to be 23. For the same compound, the Cure index in series [2] is recorded as 1. Moreover, in series [3], the “Solubility in Ink-Jet Magenta Ink” value is listed as “OK”, the “Solubility in Offset Black Ink 1” value is reported as “OK”, the “Solubility in Offset Black Ink 2” value is on record as “OK” and the “Solubility in Offset Black Ink 3” value is reported as “OK”. For the same compound, the Cure index in series [4] was 53. This compound also had a Cure index in series [5] of 42.

Compound `CCOC(=O)COc1ccc2cc(C(=O)c3ccccc3)c(=O)oc2c1` [Inventive Example 12] had a Cure index in series [1] of 15. This compound yielded a Cure index in series [2] of 3. Also, in series [3], the “Solubility in Ink-Jet Magenta Ink” value was “Poor”, the “Solubility in Offset Black Ink 1” value was “OK”, the “Solubility in Offset Black Ink 2” value is recorded as “OK” and the “Solubility in Offset Black Ink 3” value was “OK”. The same compound yielded a Cure index in series [4] of 46. In series [5], this compound had a Cure index of 26.

As for `CCC(COC(=O)COc1ccc2cc(C(=O)c3ccccc3)c(=O)oc2c1)(COC(=O)COc1ccc2cc(C(=O)c3ccccc3)c(=O)oc2c1)COC(=O)COc1ccc2cc(C(=O)c3ccccc3)c(=O)oc2c1` [Inventive Example 14], the Cure index in series [1] amounted to 7; in series [2], 1; in series [4] it was 28; in series [5], 14. Further, the “Solubility in Ink-Jet Magenta Ink” value in series [3] is on record as “Poor”. In addition, in series [3], the “Solubility in Offset Black Ink 1” value is given as “OK”. The “Solubility in Offset Black Ink 2” value in series [3] was “OK”. Also, the “Solubility in Offset Black Ink 3” value in series [3] is on record as “OK”.

`CCCCCCCCCCCCOC(=O)COc1ccc2cc(C(=O)c3ccccc3)c(=O)oc2c1` [Inventive Example 16] gave a Cure index in series [1] of 31. The same compound had a Cure index in series [2] of 5. For the same compound, in series [3], the “Solubility in Ink-Jet Magenta Ink” value is recorded as “Poor”, the “Solubility in Offset Black Ink 1” value is recorded as “OK”, the “Solubility in Offset Black Ink 2” value was “OK” and the “Solubility in Offset Black Ink 3” value is given as “OK”. Further, in series [4], the Cure index was 52. The same compound gave a Cure index in series [5] of 56.
